pIC50: −log10 of the molar value.
Legend:
[1] = Measurements of human plasma protein binding; type: in vitro ADME
Method: An aliquot of 200 μL of human plasma containing test compound was spiked into donor well (red chamber) of the insert. 350 μL of PBS was spiked into receiver well (white chamber) of the insert.
The samples were matrix equilibrated with opposite matrix (25 μL of plasma/buffer sample was matched with 25 μL of blank buffer/plasma). Matrix matched samples were precipitated with 200 μL of acetonitrile containing internal standard. Samples were vortexed at 1000 rpm for 5 min and centrifuged at 4000 rpm for 10 min. Supernatant was separated, diluted 2 fold with water and analysed in LC-MS/MS. TO control samples were processed immediately after the preparation of plasma working stock solutions. These samples serves as a measure for calculating the percentage recovery of test compounds.

[2] = system: Human Pulmonary Artery Smooth Muscle Cells (hPASMC); test: Measurements of cGMP in human pulmonary artery smooth muscle cells (hPASMC); type: cell-based; conditions: 30 min incubation, 0.1 pM-1 uM, compared to sildenafil, mirodenafil or compound 5 (FIG. 3)
Method: Human Pulmonary Artery Smooth Muscle Cells (hPASMC) were purchased from Clonetics™ Lonza (Lonza, reference number CC-2581) and cultured in Clonetics™ smooth muscle growth medium (Clonetics™ SmGM™-2 with BulletKit™ growth factor supplements (Lonza, reference number CC-3182) at 37° C. in 5% CO2. Culture medium was replaced each 48 hours. Cells were grown in 75 cm^2 culture plates. 48 h before the experiments, cells were trypsinized (Trypsin kit One ReagentPack™ (CC-5034), Lonza) and plated in 96 well plates precoated with collagen I at 10000 cells per well. 24 h before the experiments culture medium was replaced by serum-reduced (0.5% FBS) medium. […]
Measurements of intracellular cGMP were performed using the Amersham cGMP EIA System (GE Healthcare, RPN226) following the instructions of the manufacturer. […] Briefly, incubations were terminated by adding Amersham's lysis buffer 1 and cells left for 10 min under agitation to ensure complete lysis. cGMP in samples was then acetylated using triethylamine and acetic anhydride and determined by a competitive ELISA. The ELISA is based on the competition between acetylated cGMP in cell culture lysates and a peroxidase-labelled cGMP conjugate for limited binding sites on a cGMP specific antiserum immobilized on pre-coated 96 well MTP. cGMP was determined based on a standard curve. […]

[3] = target: PDE5 enzyme isolated from human platelets (Homo sapiens (Human), UniProt O76074); test: PDE5 assay (Example 109), formation of 5′GMP from cGMP, SPA;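 also: tritiated 5′GMP counted by scintillation after SPA bead capture, enzyme reaction run 60 min at 22 °C, basal control is the mixture without enzyme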
Method: Evaluation of the effects of compounds of the present invention on the activity of the human phosphodiesterase-5 quantified by measuring the formation of 5′GMP from cGMP using PDE5 enzyme isolated from human platelets.
Thereafter, the reaction is initiated by addition of the enzyme and the mixture is incubated for 60 min at 22° C.
For basal control measurements, the enzyme is omitted from the reaction mixture. Following incubation SPA beads are added. After 20 min at 22° C. under shaking, the amount of [3H]5′GMP is quantified with a scintillation counter (Topcount, Packard).
The standard inhibitory reference compound is dipyridamole, which is tested in each experiment at several concentrations to obtain an inhibition curve from which its IC50 value is calculated.

SMILES: CCCOc1ccc(S(=O)(=O)N2CCC(CCO[N+](=O)[O-])CC2)cc1-c1nc2c(CCC)cn(CC)c2c(=O)[nH]1 [Compound 1b, 2-(1-((3-(5-ethyl-4-oxo-7-propyl-4,5-dihydro-3H-pyrrolo[3,2-d]pyrimidin-2-yl)-4-propoxyphenyl)sulfonyl)piperidin-4-yl)ethyl nitrate]
- % Bound in Plasma [1]: 99.95%
- fraction unbound [1]: 0.0005
- recovery ([1]; human): 100%
- efficacy in increasing intracellular cGMP level [2]: significantly higher efficacy in increasing cGMP level
- pIC50 [3]: < 8.00
- % inhibition at 5.0E−09 M ([3]; percent inhibition of control enzyme activity at 5.0E−09 M, assay of Example 109): 12.4%

Source: US11155558B2, “Dual mode of action soluble guanylate cyclase activators and phosphodiesterase inhibitors and uses thereof” (TOPADUR PHARMA AG, priority 2017, dated 2021)
